How the values were obtained:
[1] = target: Apoptosis regulator Bcl-2 (Homo sapiens, UniProt P10415); experiment: Displacement of NLWAAQRYGRELRRMSD-K(FITC)-FVD from Bcl-2 (unknown origin) by fluorescence polarization assay
DNA topoisomerase 2 = target: T1, DNA topoisomerase 2 (Saccharomyces cerevisiae S288c, UniProt P06786); experiment: Inhibition of Saccharomyces cerevisiae DNA topoisomerase 2
T1 sequence (P06786 whole entry): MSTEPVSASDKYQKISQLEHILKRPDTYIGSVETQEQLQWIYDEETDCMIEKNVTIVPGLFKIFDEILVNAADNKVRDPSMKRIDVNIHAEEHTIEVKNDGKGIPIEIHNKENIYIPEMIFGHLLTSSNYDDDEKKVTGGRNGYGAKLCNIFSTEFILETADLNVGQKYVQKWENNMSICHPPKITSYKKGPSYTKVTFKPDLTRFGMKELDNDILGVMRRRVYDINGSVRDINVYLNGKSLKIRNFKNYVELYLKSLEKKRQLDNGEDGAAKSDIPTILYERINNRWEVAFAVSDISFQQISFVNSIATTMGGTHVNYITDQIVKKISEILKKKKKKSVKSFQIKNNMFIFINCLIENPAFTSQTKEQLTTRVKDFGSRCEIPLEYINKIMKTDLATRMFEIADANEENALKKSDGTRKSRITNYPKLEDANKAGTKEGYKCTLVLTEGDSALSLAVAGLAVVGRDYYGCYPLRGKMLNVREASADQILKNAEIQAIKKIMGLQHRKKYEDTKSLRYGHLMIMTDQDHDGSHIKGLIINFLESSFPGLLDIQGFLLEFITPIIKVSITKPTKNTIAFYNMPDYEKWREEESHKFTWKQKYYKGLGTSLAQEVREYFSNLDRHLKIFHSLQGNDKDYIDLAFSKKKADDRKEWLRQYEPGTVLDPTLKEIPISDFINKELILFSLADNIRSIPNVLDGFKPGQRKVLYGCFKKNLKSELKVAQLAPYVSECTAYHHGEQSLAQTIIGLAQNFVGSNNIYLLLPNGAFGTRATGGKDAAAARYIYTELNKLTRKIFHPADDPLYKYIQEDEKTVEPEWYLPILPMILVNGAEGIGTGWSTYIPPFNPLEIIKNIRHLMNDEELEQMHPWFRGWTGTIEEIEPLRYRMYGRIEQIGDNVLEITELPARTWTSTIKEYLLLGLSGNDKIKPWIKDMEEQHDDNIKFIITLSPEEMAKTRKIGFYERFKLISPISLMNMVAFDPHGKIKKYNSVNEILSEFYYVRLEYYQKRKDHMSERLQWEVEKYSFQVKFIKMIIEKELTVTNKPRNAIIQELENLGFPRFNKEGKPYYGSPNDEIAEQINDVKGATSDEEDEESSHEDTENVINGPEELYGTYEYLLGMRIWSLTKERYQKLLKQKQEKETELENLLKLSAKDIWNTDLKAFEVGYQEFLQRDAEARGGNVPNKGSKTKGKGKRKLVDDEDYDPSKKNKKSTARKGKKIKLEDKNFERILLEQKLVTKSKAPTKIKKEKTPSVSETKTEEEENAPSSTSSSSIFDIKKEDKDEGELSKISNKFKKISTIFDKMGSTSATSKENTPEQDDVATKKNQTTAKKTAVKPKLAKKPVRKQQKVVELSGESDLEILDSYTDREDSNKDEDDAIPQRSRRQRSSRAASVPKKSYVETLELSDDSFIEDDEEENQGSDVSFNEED

DNA topoisomerase 1 = target: T2, DNA topoisomerase 1 (Homo sapiens, UniProt P11387); experiment: Inhibition of DNA topoisomerase 1 (unknown origin)
T2 sequence (P11387 whole entry): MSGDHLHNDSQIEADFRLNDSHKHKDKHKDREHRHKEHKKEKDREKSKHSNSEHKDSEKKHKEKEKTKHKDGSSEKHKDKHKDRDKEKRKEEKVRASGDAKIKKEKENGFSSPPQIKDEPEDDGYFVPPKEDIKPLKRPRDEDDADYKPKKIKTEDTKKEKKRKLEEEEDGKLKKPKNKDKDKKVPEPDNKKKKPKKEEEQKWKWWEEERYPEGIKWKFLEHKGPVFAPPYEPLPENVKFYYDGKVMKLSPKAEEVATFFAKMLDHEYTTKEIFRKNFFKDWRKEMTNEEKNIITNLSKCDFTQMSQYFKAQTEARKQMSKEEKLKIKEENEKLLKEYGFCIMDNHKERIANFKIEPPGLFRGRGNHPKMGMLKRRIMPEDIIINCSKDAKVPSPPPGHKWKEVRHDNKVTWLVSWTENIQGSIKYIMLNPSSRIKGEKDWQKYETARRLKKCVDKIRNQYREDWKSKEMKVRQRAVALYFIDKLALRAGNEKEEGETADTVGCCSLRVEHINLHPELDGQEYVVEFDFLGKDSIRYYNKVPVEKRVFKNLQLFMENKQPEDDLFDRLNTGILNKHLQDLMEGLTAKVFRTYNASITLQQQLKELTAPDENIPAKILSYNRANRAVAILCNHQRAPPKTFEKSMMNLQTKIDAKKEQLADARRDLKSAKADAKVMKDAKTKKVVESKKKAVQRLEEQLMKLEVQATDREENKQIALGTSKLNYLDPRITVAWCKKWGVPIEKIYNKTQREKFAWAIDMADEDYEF

[2] = Binding affinity to Homo sapiens (human) G-quadruplex DNA assessed as formation of VNTR6-1 mutant complex after 2 min by PCR stop assay
[3] = Binding affinity to Homo sapiens (human) G-quadruplex DNA assessed as formation of G4TER2 mutant complex after 2 min by PCR stop assay
[4] = Binding affinity to Homo sapiens (human) G-quadruplex DNA assessed as formation of G4TER1 mutant complex after 2 min by PCR stop assay

Chain of Apoptosis regulator Bcl-2 (P10415 whole entry): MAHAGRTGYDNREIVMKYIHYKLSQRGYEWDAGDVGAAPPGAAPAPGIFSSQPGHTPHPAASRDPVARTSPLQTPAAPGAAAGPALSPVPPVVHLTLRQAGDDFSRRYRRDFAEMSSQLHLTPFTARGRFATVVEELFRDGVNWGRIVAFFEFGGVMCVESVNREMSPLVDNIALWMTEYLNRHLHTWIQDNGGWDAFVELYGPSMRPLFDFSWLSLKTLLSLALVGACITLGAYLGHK

Row | Structure (SMILES) | Ki [1] [µM] | further results
1 | Oc1cc(O)c2c(c1)O[C@H](c1ccc(O)c(O)c1)[C@H](O)C2 [(-)-EPICATECHIN] | > 100 | –
2 | O=C(O[C@@H]1Cc2c(O)cc(O)cc2O[C@H]1c1ccc(O)c(O)c1)c1cc(O)c(O)c(O)c1 [CATECHIN GALLATE] | 0.23 | –
3 | Oc1cc(O)c2c(c1)O[C@H](c1ccc(O)c(O)c1)[C@@H](O)C2 [CATECHIN] | > 100 | –
4 | O=C(O[C@@H]1Cc2c(O)cc(O)cc2O[C@@H]1c1ccc(O)c(O)c1)c1cc(O)c(O)c(O)c1 [EPICATECHIN GALLATE] | 0.4 | –
5 | Oc1cc(O)c2c(c1)O[C@H](c1cc(O)c(O)c(O)c1)[C@H](O)C2 [EPIGALLOCATECHIN] | > 100 | –
6 | O=C(O[C@@H]1Cc2c(O)cc(O)cc2O[C@@H]1c1cc(O)c(O)c(O)c1)c1cc(O)c(O)c(O)c1 [EPIGALOCATECHIN GALLATE] | 0.335 | IC50 (DNA topoisomerase 2): 3000 µM
7 | O=C(O[C@@H]1Cc2c(O)cc(O)cc2O[C@H]1c1cc(O)c(O)c(O)c1)c1cc(O)c(O)c(O)c1 [GALLOCATECHIN GALLATE] | 0.235 | –
8 | Oc1cc(O)c2c(c1)O[C@H](c1cc(O)c(O)c(O)c1)[C@@H](O)C2 [GALLOCATECHIN] | > 100 | –
9 | O=c1c(O)c(-c2cc(O)c(O)c(O)c2)oc2cc(O)cc(O)c12 [MYRICETIN] | – | IC50 (DNA topoisomerase 1): 37.4 µM
10 | Cc1oc2nc1-c1nc(co1)-c1nc(co1)-c1nc(co1)-c1nc(co1)-c1nc(co1)C1=NC(CS1)c1nc-2c(C)o1 (centres undefined) [TELOMESTATIN] | – | IC50 [2]: 9 µM; IC50 [3]: 10 µM; IC50 [4]: 10 µM
11 | O=c1c(O)cccc2c([C@H]3Oc4cc(O)cc(O)c4C[C@H]3O)cc(O)c(O)c12 [THEAFLAVANIN] | 0.286 | –
